Where “and” joins values, the source holds several entries; their conditions need not be identical. Identical values can stand only once. Results filed as inconclusive are left out.
System: BDF1 mice, s.c. Lewis lung carcinoma, T/C %
Assay: NCI In Vivo Anticancer Drug Screen. Data for tumor model Lewis Lung Carcinoma (subcutaneous) in B6D2F1 (BDF1) mice
Experimental: The antitumor activity of compounds was measured in mice bearing transplantable tumors. Survival or tumor size were measured and the results are expressed as the measurement made in the treated group (T) divided by the measurement made in the vehicle treated control group (C). The tumor model used in this assay is Lewis Lung Carcinoma (subcutaneous) in B6D2F1 (BDF1) mice

[1] = endpoint: median survival time, dose: 12.5 mg/kg/injection, schedule: Q01DX009 (ip), vehicle: Klucel (hydroxypropylcellulose) (HPC), higher = longer survival
[2] = endpoint: mean tumor weight, dose: 0.25 mg/kg/injection, schedule: Q01DX011 (ip), vehicle: other, higher = larger tumour
[3] = endpoint: mean tumor weight, dose: 0.5 mg/kg/injection, schedule: Q01DX011 (ip), vehicle: other, higher = larger tumour
[4] = endpoint: median survival time, dose: 0.5 mg/kg/injection, schedule: Q01DX009 (ip), vehicle: saline with Tween-80, higher = longer survival
[5] = endpoint: median survival time, dose: 1.0 mg/kg/injection, schedule: Q01DX009 (ip), vehicle: saline with Tween-80, higher = longer survival
[6] = endpoint: median survival time, dose: 2.0 mg/kg/injection, schedule: Q01DX009 (ip), vehicle: saline with Tween-80, higher = longer survival

In the case of CCCCCC(CN(C)C)C(O)/C=C/c1ccccc1Cl (centres undefined), the T/C (endpoint: median survival time, dose: 3.12 mg/kg/injection, schedule: Q01DX009 (ip), vehicle: saline, higher = longer survival) is reported as 99 % of control, the T/C (endpoint: median survival time, dose: 6.25 mg/kg/injection, schedule: Q01DX009 (ip), vehicle: saline, higher = longer survival) is reported as 95 % of control and the T/C (endpoint: median survival time, dose: 12.5 mg/kg/injection, schedule: Q01DX009 (ip), vehicle: saline, higher = longer survival) is reported as 92 % of control. The T/C (endpoint: median survival time, dose: 25.0 mg/kg/injection, schedule: Q01DX009 (ip), vehicle: saline, higher = longer survival) was 99 % of control and the T/C (endpoint: median survival time, dose: 50.0 mg/kg/injection, schedule: Q01DX009 (ip), vehicle: saline, higher = longer survival) was 108 % of control.
For COc1ccc(-c2cc(=O)c3c(O)cc(OC)cc3o2)cc1, the T/C (endpoint: mean tumor weight, dose: 220.0 mg/kg/injection, schedule: Q01DX011 (ip), vehicle: saline, higher = larger tumour) was 84 % of control, the T/C (endpoint: mean tumor weight, dose: 330.0 mg/kg/injection, schedule: Q01DX011 (ip), vehicle: saline, higher = larger tumour) was 71 % of control and 89 % of control and the T/C (endpoint: mean tumor weight, dose: 500.0 mg/kg/injection, schedule: Q01DX011 (ip), vehicle: saline, higher = larger tumour) was 48 % of control and 60 % of control.
With ClCCn1cnc2c(SCc3ccccc3Cl)ncnc21 the T/C (endpoint: mean tumor weight, dose: 60.0 mg/kg/injection, schedule: Q01DX011 (ip), vehicle: other, higher = larger tumour) was 75 % of control, the T/C (endpoint: mean tumor weight, dose: 120.0 mg/kg/injection, schedule: Q01DX011 (ip), vehicle: other, higher = larger tumour) was 58 % of control and the T/C (endpoint: mean tumor weight, dose: 240.0 mg/kg/injection, schedule: Q01DX011 (ip), vehicle: other, higher = larger tumour) was 64 % of control.
With CC1CCCCN1CCNc1ccc(CO)c2sc3ccccc3c(=O)c12 (centres undefined) the T/C (endpoint: median survival time, dose: 25.0 mg/kg/injection, schedule: Q01DX009 (ip), vehicle: saline with Tween-80, higher = longer survival) was 108 % of control, the T/C (endpoint: median survival time, dose: 50.0 mg/kg/injection, schedule: Q01DX009 (ip), vehicle: saline with Tween-80, higher = longer survival) was 100 % of control and the T/C (endpoint: median survival time, dose: 100.0 mg/kg/injection, schedule: Q01DX009 (ip), vehicle: saline with Tween-80, higher = longer survival) was 122 % of control.
C=CCNc1ccc(C)cc1 was tested, and the T/C (endpoint: mean tumor weight, dose: 12.5 mg/kg/injection, schedule: Q01DX011 (ip), vehicle: carboxymethylcellulose (CMC), higher = larger tumour) was 92 % of control, the T/C (endpoint: mean tumor weight, dose: 25.0 mg/kg/injection, schedule: Q01DX011 (ip), vehicle: carboxymethylcellulose (CMC), higher = larger tumour) was 93 % of control and the T/C (endpoint: mean tumor weight, dose: 50.0 mg/kg/injection, schedule: Q01DX011 (ip), vehicle: carboxymethylcellulose (CMC), higher = larger tumour) was 37 % of control. For the same compound, the T/C (endpoint: mean tumor weight, dose: 100.0 mg/kg/injection, schedule: Q01DX011 (ip), vehicle: carboxymethylcellulose (CMC), higher = larger tumour) was 5 % of control.
In the case of O=NN(CCCl)C(=O)N[C@H]1CCC[C@@H](C(=O)O)C1, the T/C (endpoint: median survival time, dose: 14.0 mg/kg/injection, schedule: Q01DX001 (ip), vehicle: Klucel (hydroxypropylcellulose) (HPC), higher = longer survival) is reported as 88 % of control and the T/C (endpoint: median survival time, dose: 32.0 mg/kg/injection, schedule: Q01DX001 (ip), vehicle: Klucel (hydroxypropylcellulose) (HPC), higher = longer survival) is reported as 93 % of control.
For N[C@H](C(=O)O)[C@@H]1CC(Cl)=NO1, the T/C (endpoint: median survival time, dose: 2.5 mg/kg/injection, schedule: Q01DX005 (ip), vehicle: saline, higher = longer survival) was 92 % of control, the T/C (endpoint: median survival time, dose: 5.0 mg/kg/injection, schedule: Q01DX005 (ip), vehicle: saline, higher = longer survival) was 67 % of control and the T/C (endpoint: median survival time, dose: 10.0 mg/kg/injection, schedule: Q01DX005 (ip), vehicle: saline, higher = longer survival) was 111 % of control. For the same compound, the T/C (endpoint: median survival time, dose: 20.0 mg/kg/injection, schedule: Q01DX005 (ip), vehicle: saline, higher = longer survival) was 62 % of control, the T/C (endpoint: median survival time, dose: 25.9 mg/kg/injection, schedule: Q04DX002 (ip), vehicle: saline, higher = longer survival) was 114 % of control and 121 % of control and the T/C (endpoint: median survival time, dose: 43.2 mg/kg/injection, schedule: Q04DX002 (ip), vehicle: saline, higher = longer survival) was 111 % of control and 112 % of control. For the same compound, the T/C (endpoint: median survival time, dose: 72.0 mg/kg/injection, schedule: Q04DX002 (ip), vehicle: saline, higher = longer survival) was 106 % of control and 107 % of control, the T/C (endpoint: median survival time, dose: 200.0 mg/kg/injection, schedule: Q04DX002 (ip), vehicle: saline, higher = longer survival) was 100 % of control and 102 % of control and the T/C (endpoint: median survival time, dose: 2.5 ml/mouse/injection, schedule: Q01DX005 (ip), vehicle: saline, higher = longer survival) was 92 % of control. For the same compound, the T/C (endpoint: median survival time, dose: 5.0 ml/mouse/injection, schedule: Q01DX005 (ip), vehicle: saline, higher = longer survival) was 68 % of control and the T/C (endpoint: median survival time, dose: 10.0 ml/mouse/injection, schedule: Q01DX005 (ip), vehicle: saline, higher = longer survival) was 108 % of control.
O=[N+]([O-])c1ccc(/C=N/c2ncc(Br)s2)o1 was tested, and the T/C (endpoint: median survival time, dose: 6.25 mg/kg/injection, schedule: Q01DX009 (ip), vehicle: Klucel (hydroxypropylcellulose) (HPC), higher = longer survival) was 89 % of control and the T/C [1] was 109 % of control.
COc1ccc2c3c(c4cc(OC)c(OC)cc4c2c1)C[C@H]1CCCCN1C3 was tested, and the T/C [2] was 90 % of control and 100 % of control, the T/C [3] was 190 % of control and the T/C (endpoint: mean tumor weight, dose: 0.75 mg/kg/injection, schedule: Q01DX011 (ip), vehicle: other, higher = larger tumour) was 87 % of control.
O=C1c2c(O)ccc(O)c2C(=O)c2c(NCCNCCO)ccc(NCCNCCO)c21 was tested, and the T/C (endpoint: median survival time, dose: 0.25 mg/kg/injection, schedule: Q01DX009 (ip), vehicle: acid diluted with saline, higher = longer survival) was 88 % of control, the T/C (endpoint: median survival time, dose: 0.5 mg/kg/injection, schedule: Q01DX009 (ip), vehicle: acid diluted with saline, higher = longer survival) was 95 % of control and the T/C [4] was 86 % of control and 106 % of control and 114 % of control. The T/C (endpoint: median survival time, dose: 1.0 mg/kg/injection, schedule: Q01DX009 (ip), vehicle: acid diluted with saline, higher = longer survival) was 102 % of control, the T/C [5] was 104 % of control and 105 % of control and 106 % of control and the T/C (endpoint: median survival time, dose: 1.0 mg/kg/injection, schedule: Q## X004 (ip), vehicle: acid diluted with saline, higher = longer survival) was 89 % of control. For the same compound, the T/C [6] was 95 % of control, the T/C (endpoint: median survival time, dose: 2.0 mg/kg/injection, schedule: Q## X004 (ip), vehicle: acid diluted with saline, higher = longer survival) was 89 % of control and the T/C (endpoint: median survival time, dose: 4.0 mg/kg/injection, schedule: Q## X004 (ip), vehicle: acid diluted with saline, higher = longer survival) was 101 % of control.
In the case of COC(C(=O)C(O)C(C)O)C1Cc2cc3cc(OC4CC(OC(C)=O)C(OC5CC(O)C(OC)C(C)O5)C(C)O4)cc(O)c3c(O)c2C(=O)C1OC1CC(OC2CC(OC3CC(C)(O)C(OC(=O)C(C)C)C(C)O3)C(O)C(C)O2)C(O)C(C)O1 (centres undefined), the T/C [4] is reported as 97 % of control and the T/C [6] is reported as 94 % of control.
For CC(/C=N/N=C(N)N)=N\N=C(N)N, the T/C (endpoint: mean tumor weight, dose: 15.0 mg/kg/injection, schedule: Q01DX011 (ip), vehicle: saline, higher = larger tumour) was 119 % of control, the T/C (endpoint: mean tumor weight, dose: 30.0 mg/kg/injection, schedule: Q01DX011 (ip), vehicle: saline, higher = larger tumour) was 88 % of control and the T/C (endpoint: mean tumor weight, dose: 60.0 mg/kg/injection, schedule: Q01DX011 (ip), vehicle: saline, higher = larger tumour) was 46 % of control.
With c1ccc([B-]2([C+]3CCCCC3)N3CCCCC3C3CCCCN32)cc1 (centres undefined) the T/C [1] was 89 % of control and the T/C (endpoint: median survival time, dose: 25.0 mg/kg/injection, schedule: Q01DX009 (ip), vehicle: Klucel (hydroxypropylcellulose) (HPC), higher = longer survival) was 106 % of control.
CC[C@]1(O)C[C@H](OC2CC(N(C)C)C(OC3CC(O)C(O)C(C)O3)C(C)O2)c2c(cc3c(c2O)C(=O)c2c(O)ccc(O)c2C3=O)[C@H]1C(=O)OC (some centres undefined) was tested, and the T/C (endpoint: median survival time, dose: 0.25 mg/kg/injection, schedule: Q01DX009 (ip), vehicle: saline with Tween-80, higher = longer survival) was 118 % of control, the T/C [4] was 110 % of control and the T/C [5] was 123 % of control. For the same compound, the T/C [6] was 110 % of control.
O=C1C2C3CCC(O3)C2C(=O)N1c1nccs1 (centres undefined) was tested, and the T/C (endpoint: mean tumor weight, dose: 62.5 mg/kg/injection, schedule: Q01DX011 (ip), vehicle: carboxymethylcellulose (CMC), higher = larger tumour) was 75 % of control and the T/C (endpoint: mean tumor weight, dose: 125.0 mg/kg/injection, schedule: Q01DX011 (ip), vehicle: carboxymethylcellulose (CMC), higher = larger tumour) was 71 % of control.
For COc1cc(NS(C)(=O)=O)ccc1Nc1c2cccc(C)c2nc2c(C)cccc12, the T/C (endpoint: median survival time, dose: 6.25 mg/kg/injection, schedule: Q01DX011 (ip), vehicle: saline, higher = longer survival) was 88 % of control, the T/C (endpoint: median survival time, dose: 12.5 mg/kg/injection, schedule: Q01DX011 (ip), vehicle: saline, higher = longer survival) was 113 % of control and the T/C (endpoint: median tumor weight (est.), dose: 25.0 mg/kg/injection, schedule: Q01DX011 (ip), vehicle: saline, higher = larger tumour) was 579 % of control.
CCCCC[C@H](O)/C=C/[C@@H]1[C@@H](C/C=C\CCCC(=O)O)[C@@H](O)C[C@H]1O was tested, and the T/C (endpoint: median survival time, dose: 2.5 mg/kg/injection, schedule: Q04DX003 (ip), vehicle: saline, higher = longer survival) was 118 % of control, the T/C (endpoint: median survival time, dose: 5.0 mg/kg/injection, schedule: Q04DX003 (ip), vehicle: saline, higher = longer survival) was 105 % of control and the T/C (endpoint: median survival time, dose: 10.0 mg/kg/injection, schedule: Q04DX003 (ip), vehicle: saline, higher = longer survival) was 95 % of control. The T/C (endpoint: median survival time, dose: 20.0 mg/kg/injection, schedule: Q04DX003 (ip), vehicle: saline, higher = longer survival) was 118 % of control, the T/C (endpoint: median survival time, dose: 40.0 mg/kg/injection, schedule: Q04DX003 (ip), vehicle: saline, higher = longer survival) was 87 % of control and the T/C (endpoint: median survival time, dose: 80.0 mg/kg/injection, schedule: Q04DX003 (ip), vehicle: saline, higher = longer survival) was 93 % of control. The T/C (endpoint: median survival time, dose: 160.0 mg/kg/injection, schedule: Q04DX003 (ip), vehicle: saline, higher = longer survival) was 87 % of control and the T/C (endpoint: median survival time, dose: 320.0 mg/kg/injection, schedule: Q04DX003 (ip), vehicle: saline, higher = longer survival) was 106 % of control.
With CC(=O)OC1CCC(NC(=O)N(CCF)N=O)CC1 (centres undefined) the T/C (endpoint: median survival time, dose: 24.0 mg/kg/injection, schedule: Q01DX001 (ip), vehicle: saline with Tween-80, higher = longer survival) was 100 % of control and the T/C (endpoint: median survival time, dose: 36.0 mg/kg/injection, schedule: Q01DX001 (ip), vehicle: saline with Tween-80, higher = longer survival) was 102 % of control.
With COC(=O)c1nc(-c2ccc3c(n2)C(=O)C(N)=C(OC)C3=O)c(N)c(-c2ccc(OC)c(OC)c2O)c1C the T/C [2] was 65 % of control, the T/C [3] was 70 % of control and the T/C (endpoint: mean tumor weight, dose: 1.0 mg/kg/injection, schedule: Q01DX011 (ip), vehicle: other, higher = larger tumour) was 45 % of control.

Source: PubChem BioAssay AID270 (DTP/NCI, 2004)
